Values after ≈ are worked out from the molar mass of the structure shown. Active and inactive are the calls of the source. No cut-off for these calls is given here.
Columns and labels:
A-375 [1] = test: Antiproliferative activity against human A-375 cells harboring BRAF mutant assessed as reduction in cell viability incubated for 24 hrs by Click-iT EdU cell proliferation imaging assay; format: functional, cell-based; details: A-375, 24 h
A549 [2] = test: Antiproliferative activity against human A549 cells harboring KRAS mutant assessed as reduction in cell viability incubated for 24 hrs by Click-iT EdU cell proliferation imaging assay; format: functional, cell-based; details: A549, 24 h
A549 [3] = test: Synergistic antiproliferative activity against human A549 cells harboring KRAS mutant assessed as reduction in cell viability incubated for 24 hrs in presence of 100 nM cobimetinib by Click-iT EdU cell proliferation imaging assay; format: functional, cell-based; details: A549, 24 h
[4] = target: RAF proto-oncogene serine/threonine-protein kinase (Homo sapiens, UniProt P04049, Y340D/Y341D)
[5] = target: Serine/threonine-protein kinase B-raf (Homo sapiens, UniProt P15056)
Description: Inhibition of BRAF (unknown origin) (416 to 766) inactive MAP2K1 as substrate preincubated for 30 mins measured after 90 mins by DELFIA assay

[6] = Clearance in mouse at 1 mg/kg, iv; format: ADME, organism-based; details: in vivo
[7] = Volume of distribution at steady state in mouse at 1 mg/kg, iv; format: ADME, organism-based; details: in vivo, read-out: Vdss
[8] = Half life in mouse at 1 mg/kg, iv; format: ADME, organism-based; details: in vivo
[9] = Oral bioavailability in mouse using methylcellulose-tween at 5 mg/kg; format: ADME, organism-based; details: in vivo
[10] = Oral bioavailability in mouse using amorphous spray-dried dispersion at 25 mg/kg; format: ADME, organism-based; details: in vivo
[11] = Kinetic solubility of the compound in pH 7.4 PBS buffer; format: physicochemical; details: read-out: Kinetic_solubility
[12] = Lipophilicity, log D of the compound at pH 7.4; format: physicochemical; details: buffer
[13] = Apparent permeability from apical to basolateral side in dog MDCK cells; format: ADME, cell-based, Canis lupus familiaris
HCT-116 [14] = test: Antitumour activity against human HCT-116 cells harboring KRAS mutant xenografted in NCR nude mouse assessed as tumor growth inhibition at 5 mg/kg, po qd for 21 days; format: functional, organism-based; details: time 21.0 day
Mus musculus [15] = test: Inhibition of pERK in human HCT-116 cells xenografted NCR nude mouse at 5 mg/kg, po qd for 4 days and measured after 2 to 8 hrs; format: functional, organism-based; details: time 4.0 day
[16] = Oral bioavailability in mouse using PEG 400 at 5 mg/kg; format: ADME, organism-based; details: in vivo
[17] = Oral bioavailability in mouse using amorphous spray-dried dispersion at 30 mg/kg; format: ADME, organism-based; details: in vivo
A549 [18] = test: Synergistic antiproliferative activity against human A549 cells harboring KRAS mutant assessed as inhibition of cell growth in presence of Cobimetinib by EdU staining based assay; format: functional; details: dose 0.02-5 µM
HCT-116 [19] = test: Synergistic antiproliferative activity against human HCT-116 cells harboring KRAS mutant assessed as inhibition of cell growth at 0.003 to 0.93 uM in presence of Cobimetinib by EdU staining based assay; format: functional; details: dose 0.003-0.93 µM
HCT-116 [20] = test: Antitumour activity against human HCT-116 cells harboring KRAS mutant xenografted in NCR nude mouse assessed as tumor growth inhibition at 10 mg/kg, po bid for 21 days; format: functional, organism-based; details: time 21.0 day
HCT-116 [21] = test: Antitumour activity against human HCT-116 cells harboring KRAS mutant xenografted in NCR nude mouse assessed as tumor growth inhibition at 10 mg/kg, po bid for 21 days in presence of 5 mg/kg Cobimetinib; format: functional; details: HCT-116, po, 504 h, time 21 day, read-out: TGI
[22] = Toxicity in NCR nude mouse xenografted with human HCT-116 cells harboring KRAS mutant assessed as body weight loss at 10 mg/kg, po bid for 21 days; format: organism-based; details: in vivo, 504 h, time 21 day
Mus musculus [23] = test: Induction of stabilization of CRAF phosphorylation in human HCT-116 cells xenografted NCR nude mouse assessed as decrease in pMEK level at 10 mg/kg, po bid for 4 days and measured after 2 to 8 hrs; format: functional, organism-based; details: time 4.0 day
Mus musculus [24] = test: Induction of stabilization of CRAF phosphorylation in human HCT-116 cells xenografted NCR nude mouse assessed as decrease in pERK level at 10 mg/kg, po bid for 4 days and measured after 2 to 8 hrs; format: functional, organism-based; details: time 4.0 day
Mus musculus [25] = test: Induction of stabilization of CRAF phosphorylation in human HCT-116 cells xenografted NCR nude mouse assessed as decrease in pRSK level at 10 mg/kg, po bid for 4 days and measured after 2 to 8 hrs; format: functional, organism-based; details: time 4.0 day
Mus musculus [26] = test: Induction of CRAF phosphorylation in human HCT-116 cells xenografted NCR nude mouse at 10 mg/kg, po bid for 4 days in presence of Cobimetinib and measured after 2 to 8 hrs; format: functional, organism-based; details: time 4.0 day
Mus musculus [27] = test: Induction of stabilization of CRAF phosphorylation in human HCT-116 cells xenografted NCR nude mouse assessed as decrease in pERK level at 10 mg/kg, po bid for 4 days in presence of Cobimetinib and measured after 8 hrs; format: functional, organism-based; details: time 4.0 day
Mus musculus [28] = test: Induction of stabilization of CRAF phosphorylation in human HCT-116 cells xenografted NCR nude mouse assessed as decrease in pRSK level at 10 mg/kg, po bid for 4 days in presence of Cobimetinib and measured after 8 hrs; format: functional, organism-based; details: time 4.0 day
A-375 [29] = test: Additive antiproliferative activity against human A-375 cells harboring BRAF mutant assessed as inhibition of cell growth in presence of Cobimetinib by EdU staining based assay; format: functional
[30] = Toxicity in NCR nude mouse xenografted with human HCT-116 cells harboring KRAS mutant assessed as body weight loss at 10 mg/kg, po bid for 21 days in presence of 5 mg/kg Cobimetinib; format: organism-based; details: in vivo, 504 h, time 21 day

Chain of RAF proto-oncogene serine/threonine-protein kinase (P04049 whole entry Y340D/Y341D): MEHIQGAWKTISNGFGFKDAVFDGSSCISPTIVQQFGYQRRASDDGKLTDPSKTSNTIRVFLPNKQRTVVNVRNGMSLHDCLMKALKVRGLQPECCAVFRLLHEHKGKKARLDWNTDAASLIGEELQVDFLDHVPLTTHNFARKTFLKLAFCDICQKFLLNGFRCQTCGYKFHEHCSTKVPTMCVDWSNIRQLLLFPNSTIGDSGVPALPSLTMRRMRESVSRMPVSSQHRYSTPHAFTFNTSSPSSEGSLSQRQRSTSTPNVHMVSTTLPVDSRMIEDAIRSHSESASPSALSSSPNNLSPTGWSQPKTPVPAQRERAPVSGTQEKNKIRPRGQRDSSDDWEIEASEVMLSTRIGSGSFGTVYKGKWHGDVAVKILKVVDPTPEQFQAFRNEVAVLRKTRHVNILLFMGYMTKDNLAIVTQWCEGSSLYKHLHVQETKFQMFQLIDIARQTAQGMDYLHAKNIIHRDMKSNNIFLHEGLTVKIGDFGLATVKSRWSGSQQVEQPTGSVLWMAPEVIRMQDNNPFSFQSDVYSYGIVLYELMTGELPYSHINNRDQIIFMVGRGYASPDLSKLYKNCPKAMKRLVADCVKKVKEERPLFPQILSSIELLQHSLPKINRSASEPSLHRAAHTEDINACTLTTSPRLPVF
Chain of Serine/threonine-protein kinase B-raf (P15056 whole entry): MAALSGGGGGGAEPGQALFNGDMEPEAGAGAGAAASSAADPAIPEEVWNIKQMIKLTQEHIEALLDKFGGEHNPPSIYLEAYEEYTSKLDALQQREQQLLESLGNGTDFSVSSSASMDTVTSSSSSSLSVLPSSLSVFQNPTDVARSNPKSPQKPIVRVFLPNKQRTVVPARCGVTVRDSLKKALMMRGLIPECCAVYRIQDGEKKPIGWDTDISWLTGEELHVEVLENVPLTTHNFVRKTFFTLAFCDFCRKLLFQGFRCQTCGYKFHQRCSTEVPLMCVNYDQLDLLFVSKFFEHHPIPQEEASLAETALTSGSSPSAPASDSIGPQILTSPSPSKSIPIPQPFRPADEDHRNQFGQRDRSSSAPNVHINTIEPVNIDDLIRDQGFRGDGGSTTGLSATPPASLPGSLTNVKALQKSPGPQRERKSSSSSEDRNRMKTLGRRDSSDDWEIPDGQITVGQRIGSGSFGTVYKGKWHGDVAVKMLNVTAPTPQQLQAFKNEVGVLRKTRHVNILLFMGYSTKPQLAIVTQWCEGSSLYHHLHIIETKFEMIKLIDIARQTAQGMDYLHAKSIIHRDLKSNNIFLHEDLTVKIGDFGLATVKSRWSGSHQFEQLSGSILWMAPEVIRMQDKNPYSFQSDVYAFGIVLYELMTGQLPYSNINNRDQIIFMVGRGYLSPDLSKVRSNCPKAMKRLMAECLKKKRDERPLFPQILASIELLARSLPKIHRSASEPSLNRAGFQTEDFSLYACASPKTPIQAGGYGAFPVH

## COc1n[nH]c2ncc(NC(=O)c3cc(NC(=O)NCCC(C)(C)C)c(F)cc3C)cc12
A-375 [1]
  IC50: 47.4 nM
A549 [2]
  IC50: 986 nM
A549 [3]
  IC50: 158 nM
[4]
  Ki: < 0.05 nM

## Cc1cc(F)c(NC(=O)NCCC(C)(C)C)cc1NC(=O)N(C)c1cc(N)ncn1
A-375 [1]
  IC50: 85.3 nM
A549 [2]
  IC50: 1400 nM
A549 [3]
  IC50: 104 nM
[4]
  Ki: < 0.05 nM
[5]
  Ki: < 0.08 nM

## Cc1cc(F)c(NC(=O)NCCC(C)(C)C)cc1Nc1ccc2ncn(C)c(=O)c2c1
A-375 [1]
  IC50: 405 nM
A549 [2]
  IC50: 2700 nM
A549 [3]
  IC50: 253 nM
[6]
  clearance: 50 mL/min/kg
[7]
  Vd: 0.94 L/kg
[8]
  half-life: 30 min
[9]
  bioavailability: 0%
[10]
  bioavailability: 2%
[11]
  solubility kinetic: < 1 µM
[12]
  logD: 4.47
[13]
  Papp A→B: 3.6 ×10⁻⁶ cm/s
[4]
  Ki: < 0.05 nM
[5]
  Ki: < 0.08 nM

## O=C(c1ccc(F)c(F)c1Nc1ccc(I)cc1F)N1CC(O)([C@@H]2CCCCN2)C1
HCT-116 [14]
  Activity: Active
Mus musculus [15]
  inhibition: Active

## Cc1cc(F)c(NC(=O)NCCC(C)(C)C)cc1Nc1ccc2ncn(C)c(=O)c2c1F
A-375 [1]
  IC50: 112 nM
A549 [2]
  IC50: 2900 nM
A549 [3]
  IC50: 169 nM
[6]
  clearance: 27 mL/min/kg
[7]
  Vd: 1.4 L/kg
[8]
  half-life: 48 min
[16]
  bioavailability: 26%
[17]
  bioavailability: 60%
[11]
  solubility kinetic: 3 µM (≈ 1.33 µg/mL)
[12]
  logD: 4.47
[13]
  Papp A→B: 13 ×10⁻⁶ cm/s
A549 [18]
  Activity: Dose-Dependent Effect
HCT-116 [19]
  Activity: Active
HCT-116 [20]
  Activity: Active
HCT-116 [21]
  inhibition in vivo at 10 mg/kg: 110%
[22]
  Activity: 10%
Mus musculus [23]
  Activity: Active
Mus musculus [24]
  Activity: Active
Mus musculus [25]
  Activity: Active
Mus musculus [26]
  Activity: Active
Mus musculus [27]
  Activity: Active
Mus musculus [28]
  Activity: Active
A-375 [29]
  Activity: Active
[30]
  Activity: Non-Toxic
[4]
  Ki: 0.061 nM
[5]
  Ki: < 0.08 nM

## Cc1cc(F)c(NC(=O)NCCC(C)(C)C)cc1NC(=O)c1cccc2c(N)ncnc12
A-375 [1]
  IC50: 8 nM
A549 [2]
  IC50: 528 nM
A549 [3]
  IC50: 96.8 nM
[4]
  Ki: < 0.05 nM
[5]
  Ki: < 0.08 nM

## CNc1cc(-c2cccnc2Nc2cc(NC(=O)NCCC(C)(C)C)c(F)cc2C)ncn1
A-375 [1]
  IC50: 92.6 nM
A549 [2]
  IC50: 2400 nM
A549 [3]
  IC50: 208 nM
[4]
  Ki: 0.06 nM
[5]
  Ki: < 0.08 nM

Source: ChEMBL document CHEMBL5030511, “Targeting KRAS Mutant Cancers via Combination Treatment: Discovery of a 5-Fluoro-4-(3H)-quinazolinone Aryl Urea pan-RAF Kinase Inhibitor” (J Med Chem, 2021)
